Molecular target: T1, P397Y-FAK (Homo sapiens, UniProt Q05397)
T1 construct: endogenous in cells; host or cells: MDA-231-LNA
Assay: P397Y-FAK Inhibition MSD Platform Cellular Biomarker Assay
Assay type: cell-based
Settings: MDA-231-LNA cells; concentration not given
Method: 96-well plates (cat#MA6000, Meso Scale Discovery) are coated with 30 μL/well of mouse monoclonal FAK antibody [63D5] (cat#ab72140, Abcam) pre-diluted in PBS to a concentration of 1 mg/mL. The plates are sealed with adhesive film and incubated for 16 hours at 4° C. The antibody is then flicked out of the plates and 150 μL of 3% [w/v] Blocker A (cat#R93AA-1, Meso Scale Discovery) is added. The plates are resealed with adhesive film and incubated at room temperature on a shaker set at medium speed for 2 hours. The plates are then washed three times with a solution containing 50 mM Tris-HCl pH 7.5, 0.15 M NaCl and 0.02% Tween-20, before cell lysate addition described below.
Cells are split 1:2 into T150 cell culture flasks 2 days prior to compound treatment. On the day prior to compound treatment, 200 μL media containing 20,000 cells is seeded into all wells of white, clear-bottom, TC treated, μclear, 96-well microtitre plates (cat#655098, Greiner Bio-One), and the plates are incubated at 37° C. and 5% CO2 for 36 hours. 1 μL/well of compound is then added from dilution series prepared in DMSO. […] 150 μL/well of Read Buffer T+Surfactant (cat#R92TC-1, Meso Scale Discovery) is then added, and pFAK-397 levels quantified using a Meso Scale Discovery SECTOR Imager 6000 instrument. […]

T1 sequence (Q05397 2-1052 limits assumed, stated change not applied): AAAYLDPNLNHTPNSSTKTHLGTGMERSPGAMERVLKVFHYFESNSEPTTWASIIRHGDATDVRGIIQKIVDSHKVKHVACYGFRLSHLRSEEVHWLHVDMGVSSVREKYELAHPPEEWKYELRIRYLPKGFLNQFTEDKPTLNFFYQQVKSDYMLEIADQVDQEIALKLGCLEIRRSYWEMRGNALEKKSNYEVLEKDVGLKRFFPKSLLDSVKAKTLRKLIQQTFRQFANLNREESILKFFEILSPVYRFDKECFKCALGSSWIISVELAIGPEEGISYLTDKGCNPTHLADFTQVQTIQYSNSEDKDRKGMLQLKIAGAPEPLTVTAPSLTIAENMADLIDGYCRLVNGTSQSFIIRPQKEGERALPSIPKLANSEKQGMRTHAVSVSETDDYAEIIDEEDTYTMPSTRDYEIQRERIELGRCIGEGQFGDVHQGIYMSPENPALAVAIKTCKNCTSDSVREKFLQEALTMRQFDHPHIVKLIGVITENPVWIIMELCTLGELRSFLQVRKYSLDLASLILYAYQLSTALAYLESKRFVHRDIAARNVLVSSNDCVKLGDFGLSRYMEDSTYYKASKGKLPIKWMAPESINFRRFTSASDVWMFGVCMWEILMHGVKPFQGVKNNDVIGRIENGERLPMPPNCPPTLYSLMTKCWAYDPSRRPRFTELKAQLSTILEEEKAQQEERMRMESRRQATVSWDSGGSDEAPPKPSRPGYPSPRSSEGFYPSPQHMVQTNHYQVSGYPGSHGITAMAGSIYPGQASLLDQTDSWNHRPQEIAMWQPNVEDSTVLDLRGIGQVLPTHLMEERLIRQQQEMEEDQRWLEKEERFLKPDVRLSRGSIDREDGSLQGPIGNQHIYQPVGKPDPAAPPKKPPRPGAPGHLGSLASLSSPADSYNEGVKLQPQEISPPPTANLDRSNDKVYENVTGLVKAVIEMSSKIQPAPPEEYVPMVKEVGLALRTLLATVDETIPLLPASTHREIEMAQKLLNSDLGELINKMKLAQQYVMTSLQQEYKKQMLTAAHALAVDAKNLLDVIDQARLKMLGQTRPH

**Q.** `NC(=O)Cc1ccccc1CCc1nc(Nc2ccc(C3CNC3)cc2)ncc1C(F)(F)F` [Compound 20, 2-(2-(2-(2-((4-(azetidin-3-yl)phenyl)amino)-5-(trifluoromethyl)pyrimidin-4-yl)ethyl)phenyl)acetamide] was tested. Which “P397Y-FAK inhibition (percent printed in the IC50 column)” value did it give?
**A.** <50%

— patent US9266864B2, “VEGFR3 inhibitors” (CANCER THERAPEUTICS CRC PTY LIMITED, priority 2012, dated 2016)
